Source: patent US20110312914A1, “CARBON MONOXIDE REMOVAL AGENT” (priority 2009, published 2011)

How the values were obtained:
[1] = diafiltration test, kidney model using an ultrafiltration membrane (molecular weight cutoff 30,000); format: in vitro ADME
Procedure: The mechanism by which the carbon monoxide removal agent according to the present invention is excreted from blood into urine via kidneys was examined by way of a kidney model using an ultrafiltration membrane. Specifically, an experiment was performed as follows.
FeTPPS, RSA, and Py3CD (procured from the same firms as in EXAMPLE 3) were respectively dissolved in a PBS buffer (pH 7.4) to prepare 0.22 μM solutions. Also, ultraviolet-visible absorption spectra were measured using the same apparatuses as in EXAMPLE 1. As the ultrafiltration membrane, a stirred cell (Model 8050 made by Millipore Corp.) with an ultrafiltration membrane with a molecular weight cutoff of 30,000 attached was used.
Equivalent amounts of the FeTPPS solution and the RSA solution were mixed to prepare an equimolar mixture, and the equimolar mixture solution was placed in the stirred cell that was set above a recovery beaker. While pressurizing with nitrogen gas, a filtrate was recovered at every fixed amount and subject to ultraviolet-visible absorption spectral analysis.
At a point at which 20 mL of the filtrate was recovered, the Py3CD solution was added so that the molar amount of Py3CD was equal to the molar amount of each of FeTPPS and RSA in the residual solution. […]

[2] = effect of the cyclodextrin dimer on the urinary excretion of porphyrins, absorbance at 420 nm of urine; format: in vivo; settings: rat, medical agent containing just the porphyrin (0.5 mM) administered, before Py3CD
Procedure: The influence that the cyclodextrin dimer has on the excretion of the carbon monoxide removal agent in urine was examined. Specifically, each of the porphyrins was administered solitarily into a rat and absorbance at 420 nm, at which each administered porphyrin has a strong absorption band, was measured to examine the amount of the porphyrin excreted into urine. Also, after administration of each porphyrin, the cyclodextrin dimer was administered and the influence thereof was examined. Specifically, an experiment was performed as follows.
Commercially available FeTPPS (made by Frontier Scientific Inc.) and TPPS (made by Tokyo Chemical Industry Co., Ltd.) with the central metal removed from FeTPPS were respectively dissolved separately to a concentration of 0.5 mM in a PBS buffer (pH 7.4) and thereby prepared as medical agents. Also, a Py3CD solution was prepared by dissolving Py3CD to a concentration of 0.6 mM in the PBS buffer (pH 7.4). Further, ultraviolet-visible absorption spectra were measured using the same apparatuses as in EXAMPLE 1.
The medical agent containing FeTPPS was administered continuously to a rat by the syringe pump (1 mL/min). By the same method as in EXAMPLE 1, urine was sampled every 30 minutes from the start of administration and the change with time of the absorbance at 420 nm was examined. […]

[3] = target: T1, Serum albumin (RSA) (Rattus norvegicus, UniProt P02770); assay: ultraviolet-visible titration of FeTPPS solution with RSA solution; format: binding; settings: 5×10^−6 M FeTPPS, PBS buffer pH 7.4
T1 construct: purchased SIGMA; Co., Ltd
Source text: Serum albumin (RSA) is a protein component of the highest content in blood and is known to have a property of taking in various hydrophobic molecules. FeTPPS is not an exception and is known to bind strongly to serum albumin (see, for example, V. E. Yushmanov et al, Mag. Res. Imaging, 14, 255-261 (1996), T. T. Tominaga et al, J. Inorg. Biochem., 65, 235-244 (1997), etc.). The effect of inducing urinary excretion of FeTPPS by Py3CD was thus compared with that by RSA. Specifically, an experiment was performed as follows.
FeTPPS was dissolved in a PBS buffer (pH 7.4) to prepare a 5 μM solution, and Py3CD and RSA (made by SIGMA. Co., Ltd.) were separately dissolved in the PBS buffer (pH 7.4) to prepare respective stock solutions. Ultraviolet-visible absorption spectra were measured with the same apparatuses as those used in EXAMPLE 1.
The FeTPPS solution was placed in a cuvette, ultraviolet-visible absorption spectra were measured while adding fixed amounts of the RSA solution to the cuvette, and at a point at which changes reached saturation, ultraviolet-visible absorption spectra were measured while adding the Py3CD solution in place of the RSA solution. FIG. 4(a) is a diagram showing the changes in the ultraviolet-visible absorption spectra and FIG. 4(b) is a titration plot.

T1 sequence (P02770 25-608): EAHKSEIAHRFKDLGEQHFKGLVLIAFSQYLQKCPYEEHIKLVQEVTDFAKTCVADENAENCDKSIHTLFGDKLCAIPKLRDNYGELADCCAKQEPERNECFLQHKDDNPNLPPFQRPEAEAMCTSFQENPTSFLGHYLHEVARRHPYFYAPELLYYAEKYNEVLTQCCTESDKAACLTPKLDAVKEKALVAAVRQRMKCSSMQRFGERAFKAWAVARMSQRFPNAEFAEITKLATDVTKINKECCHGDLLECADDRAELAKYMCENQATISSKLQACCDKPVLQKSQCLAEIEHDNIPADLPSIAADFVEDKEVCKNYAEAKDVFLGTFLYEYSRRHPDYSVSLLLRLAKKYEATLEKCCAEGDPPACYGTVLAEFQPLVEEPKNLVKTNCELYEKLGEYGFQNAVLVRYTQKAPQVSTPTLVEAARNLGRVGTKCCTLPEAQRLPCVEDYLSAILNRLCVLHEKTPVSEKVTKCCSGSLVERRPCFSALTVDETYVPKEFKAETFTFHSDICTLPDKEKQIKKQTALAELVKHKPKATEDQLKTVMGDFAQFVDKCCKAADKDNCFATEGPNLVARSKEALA

Row | Compound | passage through the ultrafiltration membrane ([1]; FeTPPS held by RSA (equimolar mixture), before Py3CD addition) | passage through the ultrafiltration membrane ([1]; FeTPPS released from RSA by addition of Py3CD and included in Py3CD) | excretion of porphyrin in urine [2] | RSA amount at which the spectral changes reach saturation [3] | number of FeTPPS molecules that can bind to a single RSA molecule [3]
1 | 5,10,15,20-tetrakis(4-sulfonatophenyl)porphyrin (II) iron complex [FeTPPS] | cannot pass through the ultrafiltration membrane | capable of passing through the ultrafiltration membrane | not excreted at all in urine | approximately ⅓ | approximately three
2 | O=S(=O)(O)c1ccc(-c2c3nc(c(-c4ccc(S(=O)(=O)O)cc4)c4ccc([nH]4)c(-c4ccc(S(=O)(=O)O)cc4)c4nc(c(-c5ccc(S(=O)(=O)O)cc5)c5ccc2[nH]5)C=C4)C=C3)cc1 [TPPS, reference compound] | – | – | not excreted at all in urine | – | –
